{
  "source": "patent US20260166313A1",
  "about": "“WIRELESS PATCH SYSTEM FOR TRANSDERMAL, TRANSMUCOSAL AND DENTAL ELECTRICAL DRUG DELIVERY” (priority 2015, published 2026)",
  "assay": "ACEK effect (DEP, ACEO, ACET) on drug particles over the inductively powered IDE, observed by light microscopy",
  "format": "physicochemical",
  "conditions": "for negative DEP (nDEP) detection / ACET effect detection: any frequency range; for negative DEP (nDEP) detection: DI water",
  "from_the_text": "In order to study the functionality of the patch in terms of a demodulation circuit and ACEK effect, a very simple set-up was constructed which is shown in FIG. 2C. The experimental set-up includes the dental patch, an optical microscope, AC waveform generators, a digital oscilloscope and some probe connectors. A microchamber was sealed over the IDE to hold the solution (FIG. 2C). […] The movement of particles was observed by an optical microscope NIKON ECLIPSE LV100 (Nikon Instruments, Inc., Melville, New York, United States of America) and the images from the microscope were acquired by a Roper Scientific (Tucson, Arizona, United States of America) digital camera and subsequently transferred to a computer. An AM signal with the amplitude of 10 V was applied to the primary coil. The AM signal applied to the primary coil was generated by two Agilent Arbitrary Waveform Generators (model 33220A). The carrier signal frequency was 8 MHz. The separation between primary and secondary coil is 10 mm. An Agilent Mixed Signal Oscilloscope (model MSO6012A) was used to record the demodulated signal. […] The frequency of the modulating signal was continuously swept in order to find an appropriate frequency at which ACEK effect occurs. […] The ACEK effect on Tetracycline, Acetaminophen, Benzocaine and Lidocaine was studied.",
  "data": [
    {"smiles": "CC(=O)Nc1ccc(O)cc1", "note": "[acetaminophen]", "values": [
      {"measurement": "negative DEP (nDEP) detection", "value": "No negative DEP (nDEP) was detected"}
    ]},
    {"smiles": "CCOC(=O)c1ccc(N)cc1", "note": "[benzocaine]", "values": [
      {"measurement": "ACET effect detection", "value": "No nDEP or ACET effects were detected"},
      {"measurement": "negative DEP (nDEP) detection", "value": "No nDEP or ACET effects were detected"},
      {"measurement": "frequency of maximum ACEO vortices", "setting": "field 15 Vpp/mm", "value": 1, "unit": "KHz"}
    ]},
    {"smiles": "CCN(CC)CC(=O)Nc1c(C)cccc1C", "note": "[lidocaine]", "values": [
      {"measurement": "ACET effect detection", "value": "No nDEP or ACET effects were detected"},
      {"measurement": "negative DEP (nDEP) detection", "value": "No nDEP or ACET effects were detected"},
      {"measurement": "frequency of maximum ACEO vortices", "setting": "field 10 Vpp/mm", "value": 500, "unit": "Hz"}
    ]}
  ]
}
